Literature values as cited in PMC7289749 (European Journal of Medicinal Chemistry, 2020).
Where two headings read alike, the source gives them in different places.

Tests used:
[1] = system: SARS-CoV-2 Mpro; details: read-out: SARS-CoV-2 Mpro inhibitory activity IC50
[2] = system: SARS-CoV-2; details: read-out: inhibition on the replication of SARS-CoV-2 EC50; dose-dependent
[3] = system: SARS-CoV-2; details: for EC50: read-out: EC50 (half-maximal effective concentration)
[4] = system: SARS-CoV-2
[5] = system: Vero E6 cells; details: read-out: CC50 (half-maximal cytotoxic concentration)
[6] = in animals, relative to CQ
[7] = system: SARS-CoV-2; details: human liver cancer Huh-7 cells

Compound | selectivity index (SI) ([3]; CC50/EC50, Vero E6 cells) | CC50 [5] [µM] | further results
O=c1cc(-c2ccccc2)oc2cc(O)c(O)c(O)c12 [Baicalein] |  |  | IC50 [1]: […]; EC50 [2]: 1690 nM
CCN(CC)CCCC(C)Nc1ccnc2cc(Cl)ccc12 (stereo not shown) [Chloroquine] | > 88.50 |  | 
O=c1c2ccccc2[se]n1-c1ccccc1 [Ebselen] |  |  | anti-viral activity in cell-based assays [4]: effective anti-viral activity
NC(=O)c1nc(F)c[nH]c1=O [Favipiravir] |  | > 400 | 
CCN(CCO)CCCC(C)Nc1ccnc2cc(Cl)ccc12 (stereo not shown) [Hydroxychloroquine] |  |  | less toxic than CQ [6]: about 40%
N=C(N)Nc1ccc(C(=O)Oc2ccc3cc(C(=N)N)ccc3c2)cc1 [Nafamostat] |  |  | selectivity index (SI) [3]: > 4.44
CC(=O)Oc1ccccc1C(=O)Nc1ncc([N+](=O)[O-])s1 [Nitazoxanide] | > 16.76 | > 35.5 | EC50 [3]: 2.12 µM
Nc1nc2c(ncn2CCC(CO)CO)c(=O)[nH]1 [Penciclovir] | > 4.17 | > 400 | EC50 [3]: 96 µM
NC(=O)c1ncn([C@@H]2O[C@H](CO)[C@@H](O)[C@H]2O)n1 [Ribavirin] | > 3.65 | > 400 | 
Remdesivir |  |  | inhibition of virus infection [7]: inhibited virus infection
